5 compounds from ChEMBL document CHEMBL1158142, “Bionectins A-C, epidithiodioxopiperazines with anti-MRSA activity, from Bionectra byssicola F120” (2006) can be followed below.

Structures are written as SMILES. Converted amounts (≈) assume the structure as drawn. The source made the active and inactive calls. No cut-off for these calls is given here.

In assay [1] the test system is Staphylococcus aureus. Description: Antibacterial activity against Staphylococcus aureus RN4220 after 24 hrs. It is filed as functional. Particulars: RN4220, 24 h.
Assay [2] concerns Staphylococcus aureus. Description: Antibacterial activity against Staphylococcus aureus 503 after 24 hrs. Type of assay: functional.
For assay [3], the system named is Staphylococcus aureus. Kind of assay: Antibacterial activity against methicillin-resistant Staphylococcus aureus CCARM3167 after 24 hrs. It is filed as functional.
Assay [4] deals with Staphylococcus aureus. Kind of assay: Antibacterial activity against methicillin-resistant Staphylococcus aureus CCARM3506 after 24 hrs. It is filed as functional.
In assay [5] the test system is Staphylococcus aureus. Kind of assay: Antibacterial activity against methicillin-sensitive Staphylococcus aureus CCARM3505 after 24 hrs. It is filed as functional.
The subject of assay [6] is Staphylococcus aureus. Description: Antibacterial activity against methicillin-sensitive Staphylococcus aureus CCARM3519 after 24 hrs. It is filed as functional.
The subject of assay [7] is Staphylococcus aureus. Description: Antibacterial activity against Staphylococcus aureus RN4220 up to 100 ug/mL after 24 hrs. It is filed as functional, organism-based.
Assay [8] has as its system Staphylococcus aureus. Description: Antibacterial activity against Staphylococcus aureus 503 up to 100 ug/mL after 24 hrs. Type of assay: functional, organism-based.
For assay [9], the system named is Staphylococcus aureus. Description: Antibacterial activity against methicillin-resistant Staphylococcus aureus CCARM3167 up to 100 ug/mL after 24 hrs. It is filed as functional, organism-based.
The test system of assay [10] is Staphylococcus aureus. Description: Antibacterial activity against methicillin-resistant Staphylococcus aureus CCARM3506 up to 100 ug/mL after 24 hrs. Type of assay: functional, organism-based.
Assay [11] concerns Staphylococcus aureus. Kind of assay: Antibacterial activity against methicillin-sensitive Staphylococcus aureus CCARM3505 up to 100 ug/mL after 24 hrs. It is filed as functional, organism-based.
Assay [12] deals with Staphylococcus aureus. Kind of assay: Antibacterial activity against methicillin-sensitive Staphylococcus aureus CCARM3519 up to 100 ug/mL after 24 hrs. Type of assay: functional, organism-based.

In general, MIC refers to the lowest concentration that inhibits growth of the organism. Higher therefore signals a need for much substance.

For the compound `CN1C(=O)[C@]23SS[C@H]1C(=O)N2[C@H]1Nc2ccccc2[C@@]1(c1c[nH]c2ccccc12)[C@@H]3O` [BIONECTIN A], the MIC in assay [1] stood at 10 µg/mL (≈ 22.2 µM); in assay [2], 10 µg/mL (≈ 22.2 µM); in assay [3] it was 30 µg/mL (≈ 66.6 µM); in assay [4] it was 30 µg/mL (≈ 66.6 µM); in assay [5], 10 µg/mL (≈ 22.2 µM); in assay [6] it was 10 µg/mL (≈ 22.2 µM).
Turning to `CC(O)[C@@]12SS[C@]3(C(=O)N1C)[C@@H](O)C1([C@@]45c6ccccc6N[C@@H]4N4C(=O)[C@]6(C(C)O)SS[C@]4(C(=O)N6C)[C@H]5O)c4ccccc4N[C@@H]1N3C2=O` (stereo not given in full) [VERTICILLIN D], the MIC in [1] came to 3 µg/mL (≈ 3.96 µM); in assay [2], 3 µg/mL (≈ 3.96 µM); in [3], 3 µg/mL (≈ 3.96 µM); in assay [4] it was 3 µg/mL (≈ 3.96 µM); in [5], 10 µg/mL (≈ 13.2 µM); in [6], 10 µg/mL (≈ 13.2 µM).
Consider `CN[C@H](CC(C)C)C(=O)N[C@H]1C(=O)N[C@@H](CC(N)=O)C(=O)N[C@H]2C(=O)N[C@H]3C(=O)N[C@H](C(=O)N[C@H](C(=O)O)c4cc(O)cc(O)c4-c4cc3ccc4O)[C@H](O)c3ccc(c(Cl)c3)Oc3cc2cc(c3O[C@@H]2O[C@H](CO)[C@@H](O)[C@H](O)[C@H]2O[C@H]2C[C@](C)(N)[C@H](O)[C@H](C)O2)Oc2ccc(cc2Cl)[C@H]1O` [VANCOMYCIN], for which the MIC in [2] turned out to be 0.25 µg/mL (≈ 0.173 µM).
As to `CS[C@H]1C(=O)N2[C@H]3Nc4ccccc4[C@@]3(c3c[nH]c4ccccc34)[C@H](O)[C@]2(SC)C(=O)N1C`, the outcome in assay [7], in [8], in [9], in assay [10], in assay [11] and in assay [12] was inactive.
Consider `CC(O)[C@@]12SS[C@]3(C(=O)N1C)[C@@H](O)[C@]1(c4c[nH]c5ccccc45)c4ccccc4N[C@@H]1N3C2=O` (stereo not given in full) [BIONECTIN B], for which the minimal inhibitory concentration (MIC) worked out at 30 µg/mL (≈ 60.7 µM) in [1]; 30 µg/mL (≈ 60.7 µM) in assay [2]; 10 µg/mL (≈ 20.2 µM) in assay [3]; 10 µg/mL (≈ 20.2 µM) in assay [4]; 30 µg/mL (≈ 60.7 µM) in [5]; 30 µg/mL (≈ 60.7 µM) in [6].
